Assay results as given in US20240181022A1, “AMURINS LYSINS, AND LYSIN-ANTIMICROBIAL PEPTIDE (AMP) CONSTRUCTS ACTIVE AGAINST GRAM-NEGATIVE BACTERIA” (priority 2021, published 2024).
Read-outs that look alike come from different tables or passages of the source. Where no end group is shown, it is not given here.

Columns and labels:
[1] = test system: B. gladioli; assay type: cell-based, Burkholderia gladioli; details: B. gladioli (15); 2-hour treatment
Procedure: (§1) The MBEC (after 2-hour treatments) was determined as described in Jones and Wozniak, PsI Produced by Mucoid Pseudomonas aeruginosa Contributes to the Establishment of Biofilms and Immune Evasion, Am. Soc. Microbiol. 2017, 8(3):e00864-17. Meropenem and tobramycin were included as controls and were both poorly active, with MBEC90 values of >256 μg/mL (data not shown).

[2] = test system: A. dolens; assay type: cell-based, Achromobacter dolens
Procedure: as §1

[3] = test system: B. cenocepacia; assay type: cell-based, Burkholderia cenocepacia
Procedure: as §1

[4] = test system: M. kansasii; assay: MIC against M. kansasii; assay type: cell-based, Mycobacterium kansasii; details: M. kansasi (ATCC 12478); CAAT media
[5] = test system: S. maltophilia; assay: Serial passage resistance development study, S. maltophilia; assay type: cell-based, Stenotrophomonas maltophilia; details: S. maltophilia, day 28, triplicate
[6] = test system: P. aeruginosa; assay: Serial passage resistance development study, P. aeruginosa; assay type: cell-based, Pseudomonas aeruginosa; details: P. aeruginosa strain CFS 1292, Day 28
[7] = test system: M. scrofulaceum; assay: MIC against M. scrofulaceum; assay type: cell-based, Mycobacterium scrofulaceum; details: M. scrofulaceum (ATCC 19981); CAAT media
[8] = test system: M. tuberculosis; assay type: cell-based, Mycobacterium tuberculosis
[9] = test system: Mycobacterium species; assay type: cell-based
[10] = test system: P. aeruginosa
[11] = test system: P. aeruginosa; assay: Time-kill assay in cystic fibrosis patient sputum, P. aeruginosa; assay type: cell-based, Pseudomonas aeruginosa
Excerpt: Sputum from 5 cystic fibrosis patients was pooled. The resulting mixture was not filtered, as it was very dense and not amenable to sterilization by filtration. Sputum is known to be a complex mixture of DNA, carbohydrates, and lipids ([…], 2016). As used herein, the term “sputum” refers to the mucus present in the respiratory tract of an animal, such as a human. Sputum may increase in thickness due to the irritation or infection, including bacterial infection, and in some instances, may be expelled by the animal while coughing. In certain instances, cystic fibrosis may be characterized by the presence of a thick, sticky mucus or sputum present in the lungs of cystic fibrosis patients. The activity of GN370, AM1, AM2, AM3, and meropenem was determined in the sputum using a time-kill assay format as disclosed in Zhang et al., Antimicrobial peptide therapeutics for cystic fibrosis, Antimicrobial Agents Chemother. 2005; 49(7):2921-2927. […] Untreated controls were included in addition to pretreatment plating (t=0) for a baseline CFU determination. Activity was also determined in the absence of sputum for comparison to activity observed in the presence of sputum.

[12] = test system: P. apista; assay type: cell-based, Pandoraea apista
Procedure: as §1

[13] = test system: B. multivorans
Procedure: (§2) Biofilms are then washed and treated with e.g., a 2-fold dilution series of the lysin in TSBg at e.g., 37° C. for 24 hours. After treatment, wells are washed, air-dried at e.g., 37° C. and stained with e.g., 0.05% crystal violet for 10 minutes.
(§3) The antibiofilm activity of GN370, AM1, AM2, and AM3 was evaluated against various Gram-negative bacteria prevalent in cystic fibrosis patients, including P. aeruginosa, S. maltophilia, and A. xylosoxidans.
(§4) The MBEC (after 2-hour treatments) was determined as described in Jones and Wozniak, PsI Produced by Mucoid Pseudomonas aeruginosa Contributes to the Establishment of Biofilms and Immune Evasion, Am. […] Microbiol.

[14] = test system: A. xylosoxidans
Procedure: as §2, §3, §4

[15] = test system: S. maltophilia
Procedure: as §2, §3, §4

[16] = test system: Achromobacter spp.; assay: MIC by broth microdilution against Achromobacter spp.; assay type: cell-based; details: Tables 8-12
Procedure: MIC values were determined using a modification of the standard broth microdilution reference method defined by the Clinical and Laboratory Standards Institute (CLSI), CLSL. 2015. Methods for Dilution Antimicrobial Susceptibility Tests for Bacteria That Grow Aerobically; Approved Standard-10th Edition. Clinical and Laboratory Standards Institute, Wayne, PA. The modification was based on the replacement of Mueller Hinton Broth with either CAA media (with and without NaCl) or CAA supplemented with 2.5% human serum. MIC is the minimum concentration of peptide sufficient to suppress at least 80% of the bacterial growth compared to control.
The MICs for were determined as described below using the broth microdilution method for meropenem, GN370, AM1, AM2, and AM3. The results are shown below in Tables 8-12.

[17] = α-hemolytic P. aeruginosa isolates (n = 13)

In the case of “MRLKMARRRYRLPRRRSRRLFSRTALRMHPRNRLRRIMRGGIRF [AM1]”, the MBEC50 [1] is reported as 4 µg/mL, the MBEC90 [1] is reported as 16 µg/mL and the “MBEC Range” value [1] is reported as 0.5 to 32 µg/mL. The MBEC50 [2] was 2 µg/mL, the MBEC90 [2] was 4 µg/mL and the “MBEC Range” value [2] was 1 to 8 µg/mL. For the same sequence, the MBEC50 [3] was 16 µg/mL, the MBEC90 [3] was 32 µg/mL and the “MBEC Range” value [3] was 2 to 32 µg/mL. The MIC [4] was 2 µg/mL, the “change in MIC over serial passage” value [5] was “no increase in MIC” and the “change in MIC over serial passage” value [6] was “no significant changes”. It also gave an MIC [7] of 0.5 µg/mL, an MIC ([8]; M. tuberculosis (ATCC 35817), (ADC, T) media) of 8 µg/mL and an MIC ([8]; M. tuberculosis strain TN8109_LB (MDR), 7H9 broth, 20 days) of 4 µg/mL. The MIC ([8]; M. tuberculosis strain TN8562_M33 (susc), 7H9 broth, 20 days) was 4 µg/mL, the MIC ([8]; M. tuberculosis strain TN10525_LL (MDR), 7H9 broth, 20 days) was 8 µg/mL and the MIC ([8]; M. tuberculosis strain TN10571_KY (MDR), 7H9 broth, 20 days) was 2 µg/mL. For the same sequence, the MIC ([8]; M. tuberculosis strain TN12657_KQ15 (IS), 7H9 broth, 20 days) was 16 µg/mL, the MIC ([8]; M. tuberculosis strain TN13923_HD17 (susc), 7H9 broth, 20 days) was 16 µg/mL and the MIC ([8]; M. tuberculosis strain TN18349_W738 (susc), 7H9 broth, 20 days) was 0.5 µg/mL. The MIC ([8]; M. tuberculosis strain TN34503_001 (susc), 7H9 broth, 20 days) was 0.5 µg/mL, the “activity (MIC) against Mycobacterium species” value [9] was “highest activity” and the “AM1 MIC50” value [10] was 0.25 µg/mL. The “AM1 MIC90” value [10] was 0.5 µg/mL, the MIC50 [10] was 0.25 µg/mL and the MIC90 [10] was 0.5 µg/mL. For the same sequence, the “MIC Range” value ([10]; MDR P. aeruginosa isolates (n = 13), in µg/mL) was 0.016-0.5, the MIC50 ([10]; P. aeruginosa isolates) was 0.25 µg/mL and the MIC90 ([10]; P. aeruginosa isolates) was 0.5 µg/mL. For the same sequence, the MIC ([10]; P. aeruginosa test organism of the sputum time-kill assay) was “(MIC = 1)”, the “activity (MIC) against P. aeruginosa isolates” value ([10]; all tested isolates, Tables 8-12) was “highly active” and the “AM1 MIC Range” value ([10]; carbapenem-resistant P. aeruginosa isolates (n = 17)) was 0.016-0.5. The MIC50 [10, 17] was 0.25 µg/mL, the MIC90 [10, 17] was 0.5 µg/mL and the “effect of sputum on antibacterial activity” value ([11]; 10% CF sputum vs no sputum) was “not inhibited”. For the same sequence, the “Log10 CFU/mL of sputum” value ([11]; absence of sputum, 1 hr) was 2.3 Log10 CFU/mL of sputum, the “Log10 CFU/mL of sputum” value ([11]; absence of sputum, 3 hr) was 2.3 Log10 CFU/mL of sputum and the “Log10 CFU/mL of sputum” value ([11]; absence of sputum, 24 hr) was 2.3 Log10 CFU/mL of sputum. For the same sequence, the “Log10 CFU/mL of sputum” value ([11]; presence of 10% sputum, 1 hr) was 2.3 Log10 CFU/mL of sputum, the “Log10 CFU/mL of sputum” value ([11]; presence of 10% sputum, 3 hr) was 2.3 Log10 CFU/mL of sputum and the “Log10 CFU/mL of sputum” value ([11]; presence of 10% sputum, 24 hr) was 2.3 Log10 CFU/mL of sputum. For the same sequence, the “killing by 1 hour, maintained by 24 hours” value ([11]; time-kill) was “complete killing”, the MBEC50 [12] was 8 µg/mL and the MBEC90 [12] was 16 µg/mL. The MBEC50 [13] was 2 µg/mL, the MBEC90 [13] was 4 µg/mL and the “MBEC Range” value [13] was 2 to 4 µg/mL. For the same sequence, the “antibiofilm activity (MBEC) against B. multivorans” value ([13]; 2-hour treatments) was “highly active”, the MBEC50 [14] was 0.5 µg/mL and the MBEC90 [14] was 1 µg/mL. For the same sequence, the “MBEC Range” value [14] was 0.125 to 2 µg/mL, the “antibiofilm activity (MBEC) against A. xylosoxidans” value ([14]; 2-hour treatments) was “highly active” and the MBEC50 [15] was 1 µg/mL. For the same sequence, the MBEC90 [15] was 2 µg/mL, the “MBEC Range” value [15] was 0.25 to 2 µg/mL and the “antibiofilm activity (MBEC) against S. maltophilia” value ([15]; 2-hour treatments) was “highly active”. The “activity (MIC) against Achromobacter spp.” value [16] was “highly active”.
